In patent US6737383B1, “Herbicidal oxadiazolidines” (priority 1999, dated 2004):

Columns and labels:
soybean = test: Test B pre/postemergence soybean; assay type: in vivo, Glycine max
Method in brief: (§1)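 Response is a visual 0-to-10 score relative to untreated plants, where 0 means no effect and 10 means complete control, taken twelve to sixteen days after application. Treatments went onto soil at planting and onto foliage of 1- to 4-leaf plants, using a surfactant-containing non-phytotoxic solvent.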

velvetleaf = test: Test B pre/postemergence velvetleaf; assay type: in vivo, Abutilon theophrasti
Method in brief: as §1

smallflower flatsedge = test: Test B flood test smallflower flatsedge; assay type: in vivo, Cyperus difformis
Method in brief: (§2)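 Flood test on plants grown to the 2-leaf stage; treated plants kept in greenhouse twelve to sixteen days, then visually rated against controls on a 0 (no effect) to 10 (complete control) scale.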

duck salad = test: Test B flood test duck salad; assay type: in vivo, Heteranthera limosa
Method in brief: as §2

[1] = Postemergence, Rate 125 g/ha, scale of 0 to 10 where 0 is no effect and 10 is complete control
[2] = Postemergence, Rate 250 g/ha, scale of 0 to 10, 0 is no effect, 10 is complete control
[3] = Postemergence, Rate 500 g/ha, scale of 0 to 10 where 0 is no effect and 10 is complete control
[4] = Postemergence, Rate 1000 g/ha, scale 0 to 10 (0 no effect, 10 complete control)
[5] = Preemergence, Rate 125 g/ha, scale of 0 to 10 where 0 is no effect and 10 is complete control
[6] = Preemergence, Rate 500 g/ha, scale of 0 to 10 where 0 is no effect and 10 is complete control
[7] = Rate 1000 g/ha, Preemergence, scale 0 to 10 (0 no effect, 10 complete control)
[8] = Pre-emergence, Rate 1000 g/ha, scale 0 to 10 (0 no effect, 10 complete control)
[9] = Rate 125 g/ha, under heading Pre-emergence, flood test species, visual evaluation after twelve to sixteen days
[10] = Rate 250 g/ha, Pre-emergence (flood test species), scale 0 to 10, 0 is no effect, 10 is complete control
[11] = Rate 500 g/ha, Pre-emergence section of Table B, 0 to 10 scale (0 no effect, 10 complete control)
[12] = Postemergence, Rate 62 g/ha, scale 0 to 10, 0 is no effect, 10 is complete control
[13] = Postemergence, Rate 250 g/ha, scale 0 to 10, 0 no effect, 10 complete control
[14] = Preemergence, Rate 62 g/ha, scale 0 to 10 (0 no effect, 10 complete control)
[15] = Preemergence, Rate 125 g/ha, scale 0 to 10 (0 no effect, 10 complete control)
[16] = Preemergence, Rate 250 g/ha, scale of 0 to 10 where 0 is no effect and 10 is complete control
[17] = Preemergence, Rate 500 g/ha, scale 0 (no effect) to 10 (complete control)
[18] = Rate 125 g/ha, Postemergence, scale 0 to 10, 0 no effect, 10 complete control
[19] = Rate 500 g/ha, Postemergence, scale 0 to 10, 0 no effect, 10 complete control
[20] = Rate 62 g/ha, headed Pre-emergence (flood test species), scale 0 to 10 (0 no effect, 10 complete control)
[21] = Rate 125 g/ha, Pre-emergence, flood test species, scale 0 to 10 where 0 is no effect and 10 is complete control
[22] = Rate 250 g/ha, headed Pre-emergence (flood test species), scale 0 to 10 (0 no effect, 10 complete control)
[23] = Rate 500 g/ha, headed Pre-emergence (flood test species), scale 0 to 10 (0 no effect, 10 complete control)
[24] = Preemergence, Rate 125 g/ha, 0 is no effect, 10 is complete control
[25] = Preemergence, Rate 250 g/ha, scale 0 to 10, 0 is no effect, 10 is complete control
[26] = Preemergence, Rate 500 g/ha, scale 0 to 10 (0 no effect, 10 complete control)
[27] = Rate 62 g/ha, Postemergence, scale of 0 to 10 where 0 is no effect and 10 is complete control
[28] = Rate 250 g/ha, Postemergence, scale 0 to 10, 0 is no effect, 10 is complete control
[29] = Rate 500 g/ha, Postemergence, scale 0 to 10
[30] = Postemergence (flood test species), Rate 125 g/ha, scale of 0 to 10 where 0 is no effect and 10 is complete control
[31] = Rate 62 g/ha, Postemergence section, flood test species, scale of 0 to 10 where 0 is no effect and 10 is complete control
[32] = Rate 250 g/ha, Postemergence (flood test), scale 0 to 10, 0 is no effect, 10 is complete control
[33] = Rate 500 g/ha, listed under Postemergence (flood test species), scale 0 to 10

Compound: CCOP(=O)(Cn1c(=O)on(C(=O)N(c2ccc(F)cc2)C(C)C)c1=O)OCC [Compound 587]
- Plant response rating, Soybean (soybean; [1]): 4
- Soybean plant response rating (soybean; [2]): 6
- Plant response rating, Soybean (soybean; [3]): 6
- Soybean plant response rating (soybean; [4]): 6
- Soybean plant response rating (soybean; [5]): 0
- Soybean plant response rating (soybean; [6]): 2
- Plant response rating, Soybean (soybean; [7]): 2
- Plant response rating, Velvetleaf (velvetleaf; [1]): 0
- Velvetleaf plant response rating (velvetleaf; [2]): 0
- Plant response rating, Velvetleaf (velvetleaf; [3]): 0
- Velvetleaf plant response rating (velvetleaf; [4]): 2
- Velvetleaf plant response rating (velvetleaf; [5]): 0
- Velvetleaf plant response rating (velvetleaf; [6]): 2
- Plant response rating, Velvetleaf (velvetleaf; [7]): 4
- S. Flatsedge plant response rating (smallflower flatsedge; [8]): 0
- S. Flatsedge plant response rating (0 to 10 scale, 0 is no effect, 10 is complete control) (smallflower flatsedge; [9]): 0
- S. Flatsedge plant response rating (smallflower flatsedge; [10]): 0
- S. Flatsedge plant response rating (smallflower flatsedge; [11]): 0
- Ducksalad plant response rating (duck salad; [8]): 0
- Ducksalad plant response rating (0 to 10 scale, 0 is no effect, 10 is complete control) (duck salad; [9]): 0
- Ducksalad plant response rating (duck salad; [10]): 0
- Ducksalad plant response rating (duck salad; [11]): 0

Compound: Cc1cccc(C)c1-n1c(=O)on(C(=O)N(Cc2ccccc2)C(C)C)c1=O [Compound 69]
- Soybean plant response rating (soybean; [12]): 2
- Soybean plant response rating (soybean; [13]): 2
- Soybean plant response rating (soybean; [14]): 0
- Plant response rating, Soybean (soybean; [15]): 0
- Plant response rating, Soybean (soybean; [16]): 0
- Soybean plant response rating (soybean; [17]): 0
- Soybean plant response rating (soybean; [18]): 2
- Soybean plant response rating (soybean; [19]): 3
- Velvetleaf plant response rating (velvetleaf; [12]): 0
- Velvetleaf plant response rating (velvetleaf; [13]): 0
- Velvetleaf plant response rating (velvetleaf; [14]): 0
- Plant response rating, Velvetleaf (velvetleaf; [15]): 0
- Plant response rating, Velvetleaf (velvetleaf; [16]): 0
- Velvetleaf plant response rating (velvetleaf; [17]): 0
- Velvetleaf plant response rating (velvetleaf; [18]): 0
- Velvetleaf plant response rating (velvetleaf; [19]): 2
- S. Flatsedge plant response rating (smallflower flatsedge; [20]): 0
- S. Flatsedge plant response rating (smallflower flatsedge; [21]): 0
- S. Flatsedge plant response rating (smallflower flatsedge; [22]): 0
- Plant response rating, S. Flatsedge (smallflower flatsedge; [23]): 0
- Ducksalad plant response rating (duck salad; [20]): 0
- Ducksalad plant response rating (duck salad; [21]): 0
- Ducksalad plant response rating (duck salad; [22]): 0
- Plant response rating, Ducksalad (duck salad; [23]): 0

Compound: COc1ccccc1Cn1c(=O)on(C(=O)N(c2ccc(F)cc2)C(C)C)c1=O [Compound 143]
- Soybean plant response rating (soybean; [1]): 3
- Soybean plant response rating (soybean; [14]): 0
- Soybean plant response rating (0 to 10 scale) (soybean; [24]): 0
- Soybean plant response rating (soybean; [25]): 0
- Soybean plant response rating (soybean; [26]): 1
- Soybean plant response rating (soybean; [27]): 3
- Plant response rating, Soybean (soybean; [28]): 4
- Soybean plant response rating (soybean; [29]): 5
- Velvetleaf plant response rating (velvetleaf; [1]): 2
- Velvetleaf plant response rating (velvetleaf; [14]): 0
- Velvetleaf plant response rating (0 to 10 scale) (velvetleaf; [24]): 0
- Velvetleaf plant response rating (velvetleaf; [25]): 0
- Velvetleaf plant response rating (velvetleaf; [26]): 0
- Velvetleaf plant response rating (velvetleaf; [27]): 2
- Plant response rating, Velvetleaf (velvetleaf; [28]): 2
- Velvetleaf plant response rating (velvetleaf; [29]): 2
- S. Flatsedge plant response rating (smallflower flatsedge; [30]): 0
- S. Flatsedge plant response rating (smallflower flatsedge; [31]): 0
- Plant response rating, S. Flatsedge (smallflower flatsedge; [32]): 2
- S. Flatsedge plant response rating (smallflower flatsedge; [33]): 8
- Ducksalad plant response rating (duck salad; [30]): 0
- Ducksalad plant response rating (duck salad; [31]): 0
- Plant response rating, Ducksalad (duck salad; [32]): 0
- Ducksalad plant response rating (duck salad; [33]): 5
